Source: PubChem BioAssay AID2060890 (Molecular Pharmacology Branch, DTP, NCI, 2025)

Tested on: LG0703-F948-PDC complex spheroid viability
Assay: Anticancer human tumor LG0703-F948-PDC patient-derived lung adenocarcinoma cell line growth inhibition [RAS]
Details: for viability, T/C: stronger effect = lower value
Method in brief: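 Multi-cell-type spheroids: tumor cells plus HUVEC endothelial cells and mesenchymal stem cells. RAS-pathway inhibitors were combined with targeted agents, each dosed in half-log steps down from clinical Cmax, or from 10 microM when Cmax was unknown.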
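Also: spheroids exposed to agents for 7 days.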
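For viability, T/C in this document: 100% = DMSO vehicle wells.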

Nc1ccn(C2OC(CO)C(O)C2(F)F)c(=O)n1 (stereo not given) + C#Cc1c(F)ccc2cc(O)cc(-c3ncc4c(N5CC6CCC(C5)N6)nc(OCC56CCCN5CC(F)C6)nc4c3F)c12
IC50 (curve of first compound, second compound 0.0316 µM): 6.33 nM | IC50 (curve of first compound, second compound 0.1 µM): 8.21 nM | IC50 (curve of first compound, second compound 0.316 µM): 6.43 nM | IC50 (curve of first compound, second compound 1 µM): 5.01 nM | IC50 (curve of first compound, second compound 3.16 µM): 3.85 nM | IC50 (curve of first compound, second compound 10 µM): < 3.16 nM | viability, T/C (second compound 0.0316 µM, first compound 0.00316 µM): 68.2% | viability, T/C (second compound 0.0316 µM, first compound 0.01 µM): 37.7% | viability, T/C (second compound 0.0316 µM, first compound 0.0316 µM): 30.6% | viability, T/C (second compound 0.0316 µM, first compound 0.1 µM): 34.1% | viability, T/C (second compound 0.0316 µM, first compound 0.316 µM): 25.7% | viability, T/C (second compound 0.0316 µM, first compound 1 µM): 28.3% | viability, T/C (second compound 0.1 µM, first compound 0.00316 µM): 74.2% | viability, T/C (second compound 0.1 µM, first compound 0.01 µM): 45% | viability, T/C (second compound 0.1 µM, first compound 0.0316 µM): 26.9% | viability, T/C (second compound 0.1 µM, first compound 0.1 µM): 27.4% | viability, T/C (second compound 0.1 µM, first compound 0.316 µM): 31.9% | viability, T/C (second compound 0.1 µM, first compound 1 µM): 27% | viability, T/C (second compound 0.316 µM, first compound 0.00316 µM): 63.7% | viability, T/C (second compound 0.316 µM, first compound 0.01 µM): 40.8% | viability, T/C (second compound 0.316 µM, first compound 0.0316 µM): 31.6% | viability, T/C (second compound 0.316 µM, first compound 0.1 µM): 29% | viability, T/C (second compound 0.316 µM, first compound 0.316 µM): 26.6% | viability, T/C (second compound 0.316 µM, first compound 1 µM): 23.5% | viability, T/C (second compound 1 µM, first compound 0.00316 µM): 59% | viability, T/C (second compound 1 µM, first compound 0.01 µM): 35.4% | viability, T/C (second compound 1 µM, first compound 0.0316 µM): 32.7% | viability, T/C (second compound 1 µM, first compound 0.1 µM): 23.8% | viability, T/C (second compound 1 µM, first compound 0.316 µM): 26.4% | viability, T/C (second compound 1 µM, first compound 1 µM): 25.6% | viability, T/C (second compound 3.16 µM, first compound 0.00316 µM): 53% | viability, T/C (second compound 3.16 µM, first compound 0.01 µM): 34.7% | viability, T/C (second compound 3.16 µM, first compound 0.0316 µM): 34.2% | viability, T/C (second compound 3.16 µM, first compound 0.1 µM): 30.9% | viability, T/C (second compound 3.16 µM, first compound 0.316 µM): 32% | viability, T/C (second compound 3.16 µM, first compound 1 µM): 26.9% | viability, T/C (second compound 10 µM, first compound 0.00316 µM): 41.5% | viability, T/C (second compound 10 µM, first compound 0.01 µM): 29% | viability, T/C (second compound 10 µM, first compound 0.0316 µM): 32.5% | viability, T/C (second compound 10 µM, first compound 0.1 µM): 33.5% | viability, T/C (second compound 10 µM, first compound 0.316 µM): 34% | viability, T/C (second compound 10 µM, first compound 1 µM): 30.7%

C=CC(=O)N1CCN(c2nc(OCC3CCCN3C)nc3c(F)c(-c4nc(N)cc(C)c4C(F)(F)F)c(Cl)cc23)C(C)C1 (stereo not given) + CCn1c(-c2cccnc2C(C)OC)c2c3cc(ccc31)N1CCOC(CC(NC(=O)C(C(C)C)N(C)C(=O)C3(F)CCN(C(=O)C#CC(C)(C)N(C)C)CC3)C(=O)N3CCCC(N3)C(=O)OCC(C)(C)C2)C1
IC50 (curve of first compound, second compound 0.000949 µM): > 1000 nM | IC50 (curve of first compound, second compound 0.003 µM): > 1000 nM | IC50 (curve of first compound, second compound 0.00949 µM): > 1000 nM | IC50 (curve of first compound, second compound 0.03 µM): > 1000 nM | IC50 (curve of first compound, second compound 0.0949 µM): > 1000 nM | IC50 (curve of first compound, second compound 0.3 µM): < 3.16 nM | viability, T/C (second compound 0.000949 µM, first compound 0.00316 µM): 91.1% | viability, T/C (second compound 0.000949 µM, first compound 0.01 µM): 92.5% | viability, T/C (second compound 0.000949 µM, first compound 0.0316 µM): 90.4% | viability, T/C (second compound 0.000949 µM, first compound 0.1 µM): 88% | viability, T/C (second compound 0.000949 µM, first compound 0.316 µM): 89.5% | viability, T/C (second compound 0.000949 µM, first compound 1 µM): 116% | viability, T/C (second compound 0.003 µM, first compound 0.00316 µM): 95.5% | viability, T/C (second compound 0.003 µM, first compound 0.01 µM): 85.6% | viability, T/C (second compound 0.003 µM, first compound 0.0316 µM): 99.5% | viability, T/C (second compound 0.003 µM, first compound 0.1 µM): 87.7% | viability, T/C (second compound 0.003 µM, first compound 0.316 µM): 80.7% | viability, T/C (second compound 0.003 µM, first compound 1 µM): 89.6% | viability, T/C (second compound 0.00949 µM, first compound 0.00316 µM): 89.6% | viability, T/C (second compound 0.00949 µM, first compound 0.01 µM): 95.1% | viability, T/C (second compound 0.00949 µM, first compound 0.0316 µM): 88.4% | viability, T/C (second compound 0.00949 µM, first compound 0.1 µM): 99% | viability, T/C (second compound 0.00949 µM, first compound 0.316 µM): 101% | viability, T/C (second compound 0.00949 µM, first compound 1 µM): 87.3% | viability, T/C (second compound 0.03 µM, first compound 0.00316 µM): 91.1% | viability, T/C (second compound 0.03 µM, first compound 0.01 µM): 89.3% | viability, T/C (second compound 0.03 µM, first compound 0.0316 µM): 78.1% | viability, T/C (second compound 0.03 µM, first compound 0.1 µM): 92.6% | viability, T/C (second compound 0.03 µM, first compound 0.316 µM): 107% | viability, T/C (second compound 0.03 µM, first compound 1 µM): 81.6% | viability, T/C (second compound 0.0949 µM, first compound 0.00316 µM): 78.2% | viability, T/C (second compound 0.0949 µM, first compound 0.01 µM): 79.1% | viability, T/C (second compound 0.0949 µM, first compound 0.0316 µM): 76.7% | viability, T/C (second compound 0.0949 µM, first compound 0.1 µM): 85.3% | viability, T/C (second compound 0.0949 µM, first compound 0.316 µM): 77.3% | viability, T/C (second compound 0.0949 µM, first compound 1 µM): 77.4% | viability, T/C (second compound 0.3 µM, first compound 0.00316 µM): 51.9% | viability, T/C (second compound 0.3 µM, first compound 0.01 µM): 47.8% | viability, T/C (second compound 0.3 µM, first compound 0.0316 µM): 47.7% | viability, T/C (second compound 0.3 µM, first compound 0.1 µM): 44.4% | viability, T/C (second compound 0.3 µM, first compound 0.316 µM): 59.9% | viability, T/C (second compound 0.3 µM, first compound 1 µM): 50.5%

CC(C)n1nc(-c2ccc3oc(N)nc3c2)c2c(N)ncnc21
viability, T/C (compound 0.000316 µM): 104% [middle of 4 runs] | viability, T/C (compound 0.00316 µM): 65.1% [middle of 4 runs] | viability, T/C (compound 0.01 µM): 40.8% [middle of 4 runs] | viability, T/C (compound 0.0316 µM): 23.2% [middle of 4 runs] | viability, T/C (compound 0.1 µM): 17% [middle of 4 runs] | IC50 (curve of compound): 6.31 nM [middle of 4 runs]
